Results on nine compounds are retold here after patent publication US11414401B2, “Substituted 2-anilinopyrimidine derivatives as EGFR modulators” (Beta Pharma, Inc., priority 2014, dated 2022).

Molecules are shown by their SMILES. Read-outs that look alike come from different tables or passages of the source.

Data set [1] deals with subcutaneously-implanted H1975 human non-small cell lung carcinoma xenographs (L858R/T790M double mutation). Put plainly: H1975 mouse xenograft model, tumor growth inhibition. Conditions: for tumor growth delay: P<0.05; for % tumor growth inhibition (% TGI): 100 mg/kg oral.
Data set [2] has as its system A431 (wild type) cells. Nature of the data set: Cell proliferation assay (Alamar Blue, 72 h), A431. Type of data set: cell-based. The following applies: Homo sapiens, read-out: A431 IC50. As for the experimental part:
(§1) Cell Culture. […] The cell monolayer was dispersed by 5 minute exposure to 0.25% Trypsin/EDTA solution (Life Technologies) and the solution was neutralized with a fresh growth medium. […] The cells maintained normal morphology and growth characteristics during the period of the study. Cell Proliferation Assay. Dispersed cells were pooled by centrifugation (200×g, 8 min.) and resuspended in a fresh medium to a concentration of 1.00 E+04 cells/ml. 200 μL of the cell suspension was added to each well (2,000 cells/well) of a black-walled 96 well plate and the cells were allowed to attach overnight under normal culture conditions. […] The final DMSO concentration in the well was 0.5% v/v. Vehicle, non-treated, and cell-free wells were also included in the assay. The cells were cultured under normal conditions for 72 hours with daily visual inspection. Cell proliferation was measured using the dye Alamar Blue (resazurin). Resazurin is reduced by cellular enzymes to resorufin, which is fluorescent (544 nm excitation, 612 nm emission). Fluorescence intensity was proportional to cell number. A resazurin stock solution was prepared in a phosphate-buffered saline (PBS) to a stock concentration of 440 μM. The resazurin stock solution (40 μL each) was added to each well at hour 67 of the 72 hour incubation period. The plate was returned to normal culture conditions and fluorescence measurements were collected using a Cytation 3 multimode plate reader (Biotek) at 72 hours. Data Analysis. Fluorescence measurements were normalized against cell-free (background) readings and the total growth over 72 hour time period was determined versus the average of the vehicle control wells. Average and standard deviation values were determined for each condition (n=3).
In general terms: The colour change of resazurin is a common sign of viable cells or microbes.

Data set [3] deals with subcutaneously-implanted H1975 human non-small cell lung carcinoma xenographs (L858R/T790M double mutation). Conditions: po, 25 mg/kg, 336 h.
Data set [4] relates to H1975 (double mutant) cells. Nature of the data set: Cell proliferation assay (Alamar Blue, 72 h), H1975. The data set is classed as cell-based. Conditions: Homo sapiens, read-out: H1975 IC50. The method, then:
as §1

In data set [5] the test system is subcutaneously-implanted HCC827 human non-small cell lung carcinoma xenographs (delE746-A750 activating mutation). Put plainly: HCC827 mouse xenograft model, tumor growth inhibition. Type of data set: in vivo, female nude mice. Conditions: 6.25 mg/kg orally once a day for 14 days (days 13-26). The text has this: Antitumor Activity of Example 1 in the HCC827 Mouse Xenograft Model.

The mark [6] stands for this setting: 6.25 mg/kg orally once a day for 14 days (days 6-19).
[7] abbreviates: 12.5 mg/kg orally once a day for 14 days (days 6-19).
[8] abbreviates: 25 mg/kg orally once a day for 14 days (days 6-19).
The mark [9] stands for this setting: all doses (6.25, 12.5 and 25 mg/kg) orally once a day for 14 days.
Where [10] appears, read: A-431, A431 (wild type) cells, 72 h proliferation.
Setting [11] is: NCI-H1975, H1975 (double mutant) cells, 72 h proliferation.
Where [12] appears, read: 100 mg/kg orally once a day for 14 days (days 7-20).

For the compound `C=CC(=O)Nc1cc(Nc2nccc(-c3cn(C)c4ccccc34)n2)c(OC)cc1OCCN(C)C` [Example 1, N-(2-(2-(Dimethylamino)ethoxy)-4-methoxy-5-((4-(1-methyl-1H-indol-3-yl)pyrimidin-2-yl)amino)phenyl)acrylamide], the “median time to evaluation size” value came out at 28.9 days in data set [1] (setting [6]), 31.6 days in data set [1] (setting [7]), 34.3 days in data set [1] (setting [8]) and 61.5 days in data set [5]. Moreover, the tumor growth delay in data set [1] (setting [6]) is listed as 14 days; in data set [1] (setting [7]) it was 16.7 days; in data set [1] (setting [8]), 19.3 days; in data set [5] (P<0.05) it was 33.2 days. Further, the “incidence of complete regressions” value in data set [1] (setting [8]) is 100%. The tolerability result in data set [1] (setting [9]) and in data set [5] was “well tolerated” throughout. Also, the treatment-related mortality entry in data set [1] (setting [9]) and in data set [5] was “no treatment-related mortality” throughout. In addition, the figures for the IC50 in data set [2] (setting [10]) and in data set [4] (setting [11]) were above 1000 nM and below 100 nM, respectively. In data set [3], this compound yielded a tumor free survivors of 10%. The “incidence of complete tumor regression at the completion of dosing” value in data set [5] came out at 100%.
With `C=CC(=O)Nc1cc(Nc2nccc(-c3cn(CCF)c4ccccc34)n2)c(OC)cc1OCCN(C)C` [Example 11, N-(2-(2-(Dimethylamino)ethoxy)-5-((4-(1-(2-fluoroethyl)-1H-indolyl-3-yl)pyrimidin-2-yl)amino)-4-methoxyphenyl)acrylamide], the 50% inhibitory concentration (IC50) (as a rule, the concentration needed to halve the response being measured) in data set [2] (A-431, 72 h) is 100 to 1000 nM; in data set [4] (NCI-H1975, 72 h), below 100 nM.
Consider `C=CC(=O)Nc1cc(Nc2nccc(-c3cn(C)c4ccccc34)n2)c(OC)cc1OC` [Example 3, N-(2,4-Dimethoxy-5-((4-(1-methyl-1H-indol-yl)pyrimidin-2-yl)amino)-phenyl)acrylamide], for which the half-maximal inhibitory concentration (IC50) was above 1000 nM in data set [2] (setting [10]) and 100 to 1000 nM in data set [4] (setting [11]).
`C=CC(=O)Nc1cc(Nc2nccc(-c3cn(C)c4ccccc34)n2)c(OC)cc1SCCN(C)C` [Example 2, N-(2-((2-(Dimethylamino)ethyl)thio)-4-methoxy-5-((4-(1-methyl-1H-indol-3-yl)pyrimidin-2-yl)amino)phenyl)acrylamide]: the “% tumor growth inhibition (% TGI)” value in data set [1] (from median tumor burdens on day 10) is reported as 110.5%. The “% tumor growth inhibition (% TGI)” value in data set [1] (from median tumor burdens on day 14) was determined as 116.6%. In data set [1] (from median tumor burdens on day 17), the “% tumor growth inhibition (% TGI)” value stood at 116.6%. Further, in data set [1] (setting [12]), the “incidence of complete tumor regression” value is 100%, the “mice remaining tumor free (TFS) at the completion of the study” value is recorded as 12.5%, the “time to evaluation size (750 mm^3)” value is 39.6 days and the tolerability entry is recorded as “well tolerated”. Besides, the “tumor growth delay (T-C)” value in data set [1] (setting [12]) is 22.2 days. The 50% inhibitory concentration (IC50) in data set [2] (setting [10]) was above 1000 nM. Besides, in data set [4] (setting [11]), the IC50 was below 100 nM.
In the case of `C=CC(=O)Nc1cc(Nc2nccc(-c3c4ccccc4nn3C)n2)c(OC)cc1OCCN(C)C` [Example 5, N-(2-(2-(Dimethylamino)ethoxy)-4-methoxy-5-((4-(2-methyl-2H-indazol-3-yl)pyrimidin-2-yl)amino)phenyl)acrylamide], the IC50 in data set [2] (setting [10]) and in data set [4] (setting [11]) was 100 to 1000 nM in each case.
`C=CC(=O)Nc1cc(Nc2nccc(-c3cn(C)c4ccccc34)n2)c(OC)cc1CCCN(C)C` [Example 4, N-(2-(3-(Dimethylamino)propyl)-4-methoxy-5-((4-(1-methyl-1H-indol-3-yl)pyrimidin-2-yl)amino)phenyl)acrylamide]: the IC50 was above 1000 nM in data set [2] (setting [10]) and below 100 nM in data set [4] (setting [11]).
For the compound `C=CC(=O)Nc1cc(Nc2nccc(-c3nn(C)c4ccccc34)n2)c(OC)cc1OCCN(C)C` [Example 10, N-(2-(2-(Dimethylamino)ethoxy)-4-methoxy-5-((4-(1-methyl-1H-indazol-3-yl)pyrimidin-2-yl)amino)phenyl)acrylamide], the IC50 in data set [2] (setting [10]) was 100 to 1000 nM; in data set [4] (setting [11]), below 100 nM.
For `C=CC(=O)Nc1cc(Nc2nccc(-c3cnn4ccccc34)n2)c(OC)cc1OCCN(C)C` [Example 9, N-(2-(2-(Dimethylamino)ethoxy)-4-methoxy-5-((4-(pyrazolo[1,5-a]pyridin-3-yl)pyrimidin-2-yl)amino)phenyl)acrylamide] the same measures were above 1000 nM and below 100 nM.
Taken in the same sequence, the figures for `C=CC(=O)Nc1cc(Nc2nccc(-c3c(C)n(C)c4ccccc34)n2)c(OC)cc1OCCN(C)C` [Example 8, N-(5-((4-(1,2-Dimethyl-1H-indol-3-yl)pyrimidin-2-yl)amino)-2-(2-(dimethylamino)ethoxy)-4-methoxyphenyl)acrylamide] were 100 to 1000 nM and below 100 nM.
